Data as given in paper PMC13095408, “DBeQ derivative targets vacuolar protein sorting 4 functions in cancer cells and suppresses tumor growth in mice” (The Journal of Pharmacology and Experimental Therapeutics, 2025).

How the values were obtained:
[1] = target: T1, recombinant human VCP (Rattus norvegicus, UniProt P46462); test: VCP ATPase activity, EnzChek Phosphate assay; type: biochemical
T1 construct: His (N); host or cells: Escherichia coli BL21(DE3)
Description: (§1) VPS4B and VCP ATPase activities were measured using the EnzChek Phosphate assay for the quantification of released phosphate. Assay buffers were based on literature precedents ([Cupido et al, 2019], [2021]) as follows: VPS4B buffer (20 mM HEPES-KOH, pH 7.4, 25 mM KOAc, 2 mM MgCl2, 5 mM (NH4)2SO4, 0.5 mM CaCl2, 2.5 mM DTT, 0.1 mg/mL BSA, 0.005% v/v Triton X-100), VCP buffer (20 mM HEPES-NaOH, pH 7.4, 20 mM NaCl, 10 mM MgCl2, 5 mM (NH4)2SO4, 0.5 mM CaCl2, 2.5 mM DTT, 0.1 mg/mL BSA, 0.005% v/v Triton X-100). In black clear-bottom 384-well plates, 22.5 μL of 5% DMSO or 40× test compounds diluted in the respective assay buffer was added to each well. ATPases were diluted to 1 μM in the respective buffers containing 2× EnzChek Phosphate assay coupling reagents of 400 μM MESG and 2 U of PNP, then 25 μL was added to each well. Plates were mixed at 1000 rpm for 30 minutes at RT while being protected from light. The reaction was initiated by adding 2.5 μL of 20 mM MgATP or water followed by mixing at 1200 rpm for 30 seconds at RT. Plates were measured at 360 nm using a CLARIOstar plate reader (BMG LABTECH) for 20 minutes at 37 °C. ATPase activity was calculated as the amount of phosphate released over a 5-minute interval under linear initial velocity conditions. The remaining ATPase activity was calculated by normalizing compound-treated activity values to the DMSO control. IC50 was calculated by fitting normalized values to a sigmoidal dose-response curve with Hill slope = −1 using Graph Pad Prism 10.0.
(§2) To identify VPS4i, we developed enzyme- and cell-based VPS4 functional assays to serve as VPS4i-screening platforms. For the enzyme-based assay, we used the colorimetric EnzChek Phosphate assay that detects free phosphate with the advantage of continuous measurement of ATP hydrolysis over time. […] Due to the high sequence and structural similarity of AAA-ATPases, we also established a VCP ATPase assay to evaluate hit selectivity. […] For the cell-based assay, our approach was based on how VPS4 inhibition causes the accumulation of ESCRT-III ([Babst et al, 1998]; [Katoh et al, 2003]). We used an N-terminal GFP-tagged CHMP4B reporter system because it is the most abundant ESCRT-III subunit ([Katoh et al, 2004]; [Teis et al, 2008]). Our aim was to test compounds under short-term serum and amino acid starvation to stimulate ESCRT activity for easier detection of inhibitors ([Takahashi et al, 2018], [2019]). […] Overall, we established 2 systems for VPS4i screening, a VPS4B ATPase activity assay and a GFP-CHMP4B accumulation cell-based assay.

[2] = system: GFP-CHMP4B-expressing U2OS cells; test: GFP-CHMP4B accumulation cell-based assay (high-content microscopy)
Description: Plates were then scanned using the 20× objective for 1 hour with ≥100 cells/well across 6 fields/well. […] For all other assays, the cells were cultured overnight in black glass-bottom 96-well plates (Cellvis; P96-1.5H-N) then stained, rinsed, and treated with SM containing the indicated compounds (0.1% DMSO or 0.1% DMSO/0.1% ethanol [vehicle] final). Plates were scanned using the 20× NA .70 objective at the indicated intervals with ≥ 300 cells/well across 3 fields/well. […]

[3] = target: T2, VPS4B (Homo sapiens, UniProt O75351); test: VPS4B ATPase activity, EnzChek Phosphate assay; type: biochemical; parameters: His tag (pET28a vector-encoded) (N); made in house; host or cells: Escherichia coli BL21(DE3)
T2 sequence (O75351 1-444): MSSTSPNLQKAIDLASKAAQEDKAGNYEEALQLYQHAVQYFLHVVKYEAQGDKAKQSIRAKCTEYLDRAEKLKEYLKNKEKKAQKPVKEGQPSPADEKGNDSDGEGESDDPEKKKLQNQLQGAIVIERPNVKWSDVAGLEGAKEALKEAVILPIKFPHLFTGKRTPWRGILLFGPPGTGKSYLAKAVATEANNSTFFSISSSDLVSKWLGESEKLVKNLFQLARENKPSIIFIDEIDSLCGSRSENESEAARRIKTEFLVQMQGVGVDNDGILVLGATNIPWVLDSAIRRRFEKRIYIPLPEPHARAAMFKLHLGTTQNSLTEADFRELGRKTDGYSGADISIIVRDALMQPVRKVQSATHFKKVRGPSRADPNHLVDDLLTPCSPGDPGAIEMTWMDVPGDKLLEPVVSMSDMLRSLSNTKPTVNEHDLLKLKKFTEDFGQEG
Description: as §1, §2

[4] = screened at 5 µM, mean ± S.D., Supplemental Table 2
[5] = screened at 1 µM, mean ± S.D., Supplemental Table 2
[6] = screened at 1 μM, starvation media, 1 hour, foci intensity per cell normalized to 4-107, mean ± SD, Table 1
[7] = remaining ATPase activity, screened at 5 μM, mean ± SD, Table 1
[8] = remaining ATPase activity, screened at 5 μM, mean ± SD, Table 2

T1 sequence (P46462 2-806 limits assumed): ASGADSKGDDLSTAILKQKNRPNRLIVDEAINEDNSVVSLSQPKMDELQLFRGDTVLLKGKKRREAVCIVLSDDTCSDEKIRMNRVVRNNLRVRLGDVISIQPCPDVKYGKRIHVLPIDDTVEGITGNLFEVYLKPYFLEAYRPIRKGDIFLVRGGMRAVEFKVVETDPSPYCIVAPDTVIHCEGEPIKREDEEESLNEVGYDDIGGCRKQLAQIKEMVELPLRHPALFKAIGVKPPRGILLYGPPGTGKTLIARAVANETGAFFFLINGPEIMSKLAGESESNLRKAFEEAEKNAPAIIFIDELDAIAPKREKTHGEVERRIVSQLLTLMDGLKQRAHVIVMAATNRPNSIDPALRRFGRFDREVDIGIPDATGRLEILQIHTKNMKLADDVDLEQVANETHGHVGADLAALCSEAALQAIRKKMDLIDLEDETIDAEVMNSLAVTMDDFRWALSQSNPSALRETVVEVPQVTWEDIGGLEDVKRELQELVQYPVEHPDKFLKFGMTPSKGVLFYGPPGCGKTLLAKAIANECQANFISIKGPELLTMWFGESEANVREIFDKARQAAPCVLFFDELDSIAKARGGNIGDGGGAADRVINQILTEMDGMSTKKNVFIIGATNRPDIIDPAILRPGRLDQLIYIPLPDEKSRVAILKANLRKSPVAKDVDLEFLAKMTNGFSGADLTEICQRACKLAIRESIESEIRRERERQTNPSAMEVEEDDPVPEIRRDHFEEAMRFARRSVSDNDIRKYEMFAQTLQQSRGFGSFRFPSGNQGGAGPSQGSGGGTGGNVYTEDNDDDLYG

VCP ATPase (% DMSO) [1, 4]	VPS4B ATPase (% DMSO) [3, 7]	VPS4B ATPase (% DMSO) [3, 4]	VCP ATPase (% DMSO) [1, 8]	Structure (SMILES)	GFP-CHMP4B (% 4-107) [2, 5]	GFP-CHMP4B (% 4-107) [2, 6]
86.15 ± 0.65 % DMSO	35.59 ± 2.28 % DMSO	35.59 ± 2.28 % DMSO	–	COc1ccc2c(NCc3ccccc3)nc(NCc3ccccc3)nc2c1 [Compound 6]	33.47 ± 15.62 % 4-107	33.47 ± 15.62 % 4-107
95.43 ± 0.86 % DMSO	–	54.50 ± 2.02 % DMSO	–	COc1cccc2c(NCc3ccccc3)nc(NCc3ccc(C#N)cc3)nc12 [Compound 7-05]	42.59 ± 0.15 % 4-107	–
93.82 ± 0.90 % DMSO	–	47.66 ± 0.34 % DMSO	–	COc1cccc2c(NCc3ccccc3)nc(NCc3ccc(F)cc3)nc12 [Compound 5-151]	73.02 ± 27.67 % 4-107	–
107.28 ± 1.88 % DMSO	29.98 ± 0.49 % DMSO	29.98 ± 0.49 % DMSO	107.28 ± 2.66 % DMSO	COc1ccc(CNc2nc(NCc3ccccc3)c3cccc(OC)c3n2)cc1 [Compound 19]	86.61 ± 22.39 % 4-107	86.61 ± 22.39 % 4-107
80.50 ± 0.40 % DMSO	35.22 ± 0.66 % DMSO	35.22 ± 0.66 % DMSO	80.50 ± 0.57 % DMSO	COc1cccc2c(NCc3ccccc3)nc(NCc3cccc(F)c3)nc12 [Compound 20]	99.48 ± 22.3 % 4-107	99.48 ± 22.30 % 4-107
69.70 ± 8.05 % DMSO	–	–	–	Nc1cccc2c(NCc3ccccc3)nc(NCc3ccccc3)nc12 [Compound 7-31]	48.41 ± 2.74 % 4-107	–
98.67 ± 2.86 % DMSO	28.27 ± 0.04 % DMSO	28.27 ± 0.04 % DMSO	–	COc1cccc2c(NCc3ccccc3)nc(NCc3cccc4ccccc34)nc12 [Compound 13]	36.79 ± 0.89 % 4-107	36.79 ± 0.89 % 4-107
83.40 ± 3.28 % DMSO	27.55 ± 0.01 % DMSO	27.55 ± 0.01 % DMSO	83.40 ± 4.64 % DMSO	COc1cccc2c(NCc3ccccc3)nc(NCc3ccc(C)cc3)nc12 [Compound 18]	48.09 ± 1.26 % 4-107	48.09 ± 1.26 % 4-107
100.96 ± 0.28 % DMSO	33.98 ± 3.50 % DMSO	33.98 ± 3.50 % DMSO	–	COc1ccc(CNc2nc(NCc3ccc(OC)cc3)c3cccc(OC)c3n2)cc1 [Compound 21]	37.69 ± 13.03 % 4-107	37.69 ± 13.03 % 4-107
91.83 ± 3.79 % DMSO	55.59 ± 2.13 % DMSO	55.59 ± 2.13 % DMSO	91.83 ± 5.36 % DMSO	COc1cccc2c(NCc3ccccc3)nc(NCc3cccc(C#N)c3)nc12 [Compound 17]	82.61 ± 11.90 % 4-107	82.61 ± 11.90 % 4-107
100.03 ± 0.81 % DMSO	–	51.50 ± 0.83 % DMSO	–	COc1cccc(CNc2nc(NCc3ccccc3)c3cccc(OC)c3n2)c1 [Compound 5-27-2]	71.11 ± 0.37 % 4-107	–
–	42.10 ± 0.26 % DMSO	42.10 ± 0.26 % DMSO	–	COC(=O)c1cccc(CNc2nc(NCc3ccccc3)c3cccc(OC)c3n2)c1 [Compound 14]	13.39 ± 9.03 % 4-107	13.39 ± 9.03 % 4-107
–	–	75.99 ± 2.63 % DMSO	–	COc1cccc2c(NCCc3ccccc3)nc(NCc3nc4ccccc4s3)nc12 [Compound 5-107]	0.24 ± 0.08 % 4-107	–
–	43.86 ± 1.20 % DMSO	43.86 ± 1.20 % DMSO	–	COc1ccc2nc(NCc3ccccc3)nc(NCc3ccccc3)c2c1 [Compound 7]	8.92 ± 2.87 % 4-107	8.92 ± 2.87 % 4-107
